Results published in US20090011424A1, “Cancer-suppressing agents” (Tokyo Medical and Dental University, priority 2005, published 2009).

System: SMS-KAN cell
Test: messenger RNA expression analysis, AceGene Human oligo chip 30 K, NR1I2-expressing clone B1 vs control clone
Type: cell-based
Conditions: 2nd: Cy5-B1/Cy3-control
Description: The NR1I2 gene has been known as a transcriptional factor. Thus, it is possible to know what type of gene expression is controlled by obtaining messenger RNAs from cells causing NR1I2 protein expression and cells not causing such expression, and comparing the expression levels thereof with each other. As described above, the NR1I2 gene protein may have an effect of inhibiting cancer. […] Therefore, pCMV-Tag3 vector not containing a foreign gene as a control was introduced into SMS-KAN cell, and pCMV-Tag3-VP-NR1I2 containing the NR1I2 gene as a test sample was introduced into SMS-KAN cell. As a result, a control cell clone and a cell clone B1 permanently causing NR1I2 protein expression were obtained. Thereafter, analysis of messenger RNA expression was carried out using these two types of cells and an AceGene Human oligo chip 30 K (DNA Chip Research Inc.), with which the expression levels of 30,000 human genes can be observed (Inoue. J., et al. Am J. Pathol. 165. 71. 2004). A complementary strand DNA (complimentary DNA) was prepared, into which aminoallyl-dUTP (Ambion Inc.) was incorporated using an Oligo (dT) 12-18 primer. Then, the aminoallyl group was labeled with reactive Cy3 (cyanin 3) and Cy5 (cyanin 5) (Amersham Biosciences) via a coupling reaction. Hybridization was performed twice (1st: Cy3-B1/Cy5-control; 2nd: Cy5-B1/Cy3-control). Signals were measured using a GenePix 4000B (Axon Instruments) so as to be analyzed by GenePix Pro 4.1 software (Axon Instruments). Tables 3 and 4 are lists of genes, where in the cases of SMS-KAN cells into which the NR1I2 gene had been introduced in the two experiments, the expression levels were 1.5-fold or greater than the expression level in the case of a control cell clone.

For “NR1I2 gene: human-derived gene, nuclear receptor subfamily 1, group I, member 2 (pregnane X receptor, PXR), nucleotide sequence SEQ ID NO: 1”, the “ADAMTS2 expression level Ratio 2nd” value was 1.60, the “ADNP expression level Ratio 2nd” value was 1.63 and the “AP3S2 expression level Ratio 2nd” value was 2.55. For the same substance, the “APEG1 expression level Ratio 2nd” value was 1.91, the “APOA1 expression level Ratio 2nd” value was 2.00 and the “APP expression level Ratio 2nd” value was 2.05. The “ARHC expression level Ratio 2nd” value was 1.52, the “ARL2 expression level Ratio 2nd” value was 1.53 and the “ASCL2 expression level Ratio 2nd” value was 2.46. For the same substance, the “ASH1 expression level Ratio 2nd” value was 1.83, the “B4GALT5 expression level Ratio 2nd” value was 1.56 and the “BARD1 expression level Ratio 2nd” value was 1.93. For the same substance, the “BCAT2 expression level Ratio 2nd” value was 1.63, the “BLP2 expression level Ratio 2nd” value was 1.53 and the “BMP15 expression level Ratio 2nd” value was 1.52. The “C6orf25 expression level Ratio 2nd” value was 1.76, the “CCNA1 expression level Ratio 2nd” value was 1.92 and the “CDC7L1 expression level Ratio 2nd” value was 1.86. For the same substance, the “CISH expression level Ratio 2nd” value was 2.17, the “CORO2A expression level Ratio 2nd” value was 1.73 and the “Cab45 expression level Ratio 2nd” value was 1.86. For the same substance, the “DKFZp434G05 expression level Ratio 2nd” value was 1.58, the “DKKL1 expression level Ratio 2nd” value was 1.56 and the “DNA12 expression level Ratio 2nd” value was 1.54. For the same substance, the “EPHX1 expression level Ratio 2nd” value was 2.25, the “ERCC1 expression level Ratio 2nd” value was 1.84 and the “ETR101 expression level Ratio 2nd” value was 1.67. For the same substance, the “EXT1 expression level Ratio 2nd” value was 1.89, the “FLJ10737 expression level Ratio 2nd” value was 1.54 and the “FLJ12389 expression level Ratio 2nd” value was 2.19. The “FLJ13197 expression level Ratio 2nd” value was 2.99, the “FLJ13479 expression level Ratio 2nd” value was 1.94 and the “FLJ20288 expression level Ratio 2nd” value was 1.83. The “FLJ20555 expression level Ratio 2nd” value was 1.53, the “FLJ23462 expression level Ratio 2nd” value was 1.67 and the “FOFR3 expression level Ratio 2nd” value was 1.59. The “GLI2 expression level Ratio 2nd” value was 2.72, the “GNE expression level Ratio 2nd” value was 1.90 and the “GSTT2 expression level Ratio 2nd” value was 3.28. For the same substance, the “GUCY1A3 expression level Ratio 2nd” value was 1.63, the “HHEX expression level Ratio 2nd” value was 1.57 and the “HNT expression level Ratio 2nd” value was 1.57. The “HPCL2 expression level Ratio 2nd” value was 1.74, the “ICAM5 expression level Ratio 2nd” value was 1.54 and the “IFIT4 expression level Ratio 2nd” value was 1.54. The “INSL6 expression level Ratio 2nd” value was 1.68, the “IRC039700 expression level Ratio 2nd” value was 2.15 and the “KCNJ15 expression level Ratio 2nd” value was 1.91. For the same substance, the “KIAA0161 expression level Ratio 2nd” value was 1.56, the “KIAA0212 expression level Ratio 2nd” value was 2.04 and the “LBP-9 expression level Ratio 2nd” value was 1.95. The “LDB1 expression level Ratio 2nd” value was 1.60, the “LICAM expression level Ratio 2nd” value was 1.89 and the “LILRB5 expression level Ratio 2nd” value was 1.76. The “LOC51024 expression level Ratio 2nd” value was 1.69, the “LRP8 expression level Ratio 2nd” value was 1.54 and the “LZLP expression level Ratio 2nd” value was 1.61. For the same substance, the “MAFG expression level Ratio 2nd” value was 2.55, the “MGC2306 expression level Ratio 2nd” value was 1.58 and the “MGC2941 expression level Ratio 2nd” value was 1.93. For the same substance, the “MPP6 expression level Ratio 2nd” value was 1.70, the “MT-ACT48 expression level Ratio 2nd” value was 1.61 and the “OCM expression level Ratio 2nd” value was 1.72. For the same substance, the “OMP expression level Ratio 2nd” value was 1.58, the “OPA3 expression level Ratio 2nd” value was 2.49 and the “ORC5L expression level Ratio 2nd” value was 1.69. The “ORM1 expression level Ratio 2nd” value was 1.60, the “PCDHA4 expression level Ratio 2nd” value was 1.97 and the “PCDHB10 expression level Ratio 2nd” value was 1.66. The “PDCD8 expression level Ratio 2nd” value was 2.03, the “PFKFB4 expression level Ratio 2nd” value was 4.97 and the “PGAM1 expression level Ratio 2nd” value was 2.16. For the same substance, the “PITPN expression level Ratio 2nd” value was 1.75, the “PLA2G2A expression level Ratio 2nd” value was 3.05 and the “PLCE1 expression level Ratio 2nd” value was 2.94. The “PLEKHA1 expression level Ratio 2nd” value was 1.56, the “PRO2121 expression level Ratio 2nd” value was 1.91 and the “PRO2831 expression level Ratio 2nd” value was 1.53. For the same substance, the “RDH5 expression level Ratio 2nd” value was 1.64, the “RP1 expression level Ratio 2nd” value was 1.56 and the “RPL39L expression level Ratio 2nd” value was 2.34. The “RPS16 expression level Ratio 2nd” value was 1.59, the “SC65 expression level Ratio 2nd” value was 1.58 and the “SCD expression level Ratio 2nd” value was 1.77. For the same substance, the “SCN2B expression level Ratio 2nd” value was 1.54, the “SLC22A11 expression level Ratio 2nd” value was 1.68 and the “SNAP91 expression level Ratio 2nd” value was 3.43. For the same substance, the “STK11 expression level Ratio 2nd” value was 1.64, the “SURF1 expression level Ratio 2nd” value was 1.95 and the “TCEA1 expression level Ratio 2nd” value was 1.56. The “TGM2 expression level Ratio 2nd” value was 1.62, the “TIMM10 expression level Ratio 2nd” value was 1.89 and the “TLAL1 expression level Ratio 2nd” value was 2.37. The “TMPRSS4 expression level Ratio 2nd” value was 1.57, the “TOP3B expression level Ratio 2nd” value was 1.61 and the “TPARL expression level Ratio 2nd” value was 1.58. For the same substance, the “TRPV4 expression level Ratio 2nd” value was 1.80, the “TSPAN-1 expression level Ratio 2nd” value was 1.69 and the “UXT expression level Ratio 2nd” value was 2.94. For the same substance, the “WHSC2 expression level Ratio 2nd” value was 1.67.
